Laboratory results as given in patent US20240116984A1, “MODIFIED PEPTIDES FOR THE INHIBITION OF ABNORMAL TAU ACCUMULATION” (University of Notre Dame du Lac, priority 2021, published 2024).
“Also recorded” adds a separate entry of the source. Starred links: 1 amine or outer side, 2 acyl side, 3 side chain; linkers in the order of their positions; H or OH if unused. Non-standard residues stand in square brackets, D forms with d. Residues, ends and D or L forms follow the SMILES beside them. Primed or numbered codes have the meaning given here. *: point of attachment. aIle′ = Ile with backbone N-amino (N-aminated amide nitrogen), CC[C@H](C)[C@@H](C(=O)[*:2])N(N)[*:1]; aVal = Val with backbone N-amino (N-aminated amide nitrogen), CC(C)[C@@H](C(=O)[*:2])N(N)[*:1]; X2 = NN([C@@H](Cc1ccc(O)cc1)C(=O)[*:2])[*:1]; X1 = CC[C@H](C)[C@@H](C(=O)[*:2])N(N)[*:1]; N(NH2)LysNH2 = NCCCC[C@@H](C(N)=O)N(N)*; X3 = CC(C)[C@@H](C(=O)[*:2])N(N)[*:1]; N(NH2)Lys = NCCCC[C@H](NN)C(=O)O

Assays:
[1] = test system: tauP301L fibrils; test: Transmission electron microscopy of heparin-induced tauP301L fibrils; type: biochemical, human; conditions: two-fold molar excess of inhibitor, 96 h
Method: For analyzing fibrils by transmission electron microscopy (TEM), aggregation was carried out under conditions similar to the assay above but with ThT excluded and a final reaction volume of 100 μL Samples were incubated in a microcentrifuge tube for 4 days at 37° C. with a mixing speed of 100 rpm. A 10 μL aliquot of the sample was then applied to 400-meshed formvar/carbon-coated copper grids and negative stained with 2% uranyl-acetate. Micrographs were taken on a JEOL 2011 TEM at 200 kV.

[2] = test system: Recombinant tauP301L (0N4R); test: Thioflavin T (ThT) fluorescence aggregation assay of recombinant tauP301L; type: biochemical, human; conditions: Tau 10 μM : inhibitor 20 μM (2-fold molar excess), heparin, 48 h
Method: Recombinant tauP301L (10 μM final concentration) and NAP inhibitors 20 μM final concentration) were mixed in an aggregation buffer (100 mM sodium acetate, 10 μM ThT, 10 μM heparin, 2 mM DTT, 0.5% DMSO, pH 7.4) in a 96-well clear bottom black plate with a final reaction volume of 200 μL. The plate was then sealed with a clear sealing film and allowed to incubate at 37° C. with continuous shaking in a Biotek Synergy H1 microplate reader. An automated method was used to carry out ThT fluorescence measurements at an excitation wavelength of 444 nm and an emission wavelength of 485 nm at an interval of every 5 minutes for 48 hours. Experiments were carried out in technical replicates on at least two different days. Every experiment included control wells that lacked tau301L, heparin, or NAPs. The average of tau-only (no heparin) wells was used to subtract background fluorescence and the average of the first and last 10 data points of tau+heparin wells, after blank subtraction, was used to normalize the data. All data plots were generated with SigmaPlot.

[3] = test system: human neuroblastoma SH-SY5Y cells; test: MTT cell viability assay on SH-SY5Y cells; type: cell-based; conditions: 10 μM and 50 μM, 48 h
Method: MTT cell viability assays were carried out on both HEK293 cells stably expressing tau-RD (LM)-YFP and SH-SY5Y cells. Cells were cultured in DMEM/F12 complete media containing 10% FBS, 1% penicillin/streptomycin and 1% Glutamax™ (Gibco) in a 75 cm^2 cell culture flask under 5% CO2 at 37° C. Cell viability was determined using MTT reduction assay. Briefly, 15,000 cells/well were plated in a 96 well tissue culture plate and were allowed to incubate overnight in a CO2 incubator. The media was aspirated, and the NAP inhibitor prepared in complete media was added at a given final concentration. The plate was then allowed to incubate for additional 48 h in a CO2 incubator and the media was aspirated again and replaced with 0.5 mg/mL of MTT prepared in complete media and incubated for additional 3 h. Media was then replaced with DMSO to dissolve formazan crystals and the absorbance was measured at 570 nm using Synergy H1 micro plate reader. Each data set were collected from technical replicates on at least two different days.

[4] = test system: HEK293 cells stably expressing tau-RD (P301L/V337M)-YFP; test: Cellular seeding assay, seeding by monomeric tau co-incubated with NAPs; type: cell-based, human; conditions: 0.19 μM Tau, 4 days co-incubation, cells 48 h
Method: (§1) HEK293 cells stably expressing tau-RD (LM)-YFP were cultured in DMEM media containing 10% FBS, 1% penicillin/streptomycin, and 1% Glutamax™ (Gibco) in a 75 cm^2 cell culture flask under 5% CO2 at 37° C. For each experiment, cells were plated at a density of 15000 cells/well into 96 well tissue culture plates.
Monomeric tauP301L was co-incubated with NAPs for 4 days in an aggregation buffer at 37° C. (see above section). Following incubation, the reaction mixture was diluted in low serum Opti-MEM® media (Gibco), mixed with lipofectamine 2000 in 20:1 ratio (complex:lipofectamine) and allowed to incubate for an additional 20 minutes at RT. A mixture of 0.19 μM of Tau+1.9 μM or 0.009 μM of inhibitors (final concentrations) was added to the cells. Cells were incubated for additional 48 h before taking measurements on a BioTek Cytation 5 cell imager and microplate reader. 10×10 pictures/well were taken at 20× magnification under FITC channel and the punctate counting was carried out using built-in software. Each data set was collected from technical replicates on at least two different days. Every experiment included control wells (no tau, no heparin, and no NAP). All data plots were generated with SigmaPlot. Error bars shown are standard deviation from technical replicates.

[5] = molecular target: T1, synthetic, full-length Aβ42 (Homo sapiens, UniProt P05067); test: ThT fluorescence assay with Aβ42; type: biochemical; conditions: Aβ42 40 μM
T1 construct: synthetic, full-length Aβ42 (40 μM)
Method: A peptidomimetic approach to tau inhibition offers prospects for achieving selectivity over other amyloids rich in β structure. As a preliminary test, the best-performing tau mimic, compound 12 (EG09; SEQ ID NO: 18), was selected and its effect on Aβ42 aggregation in vitro was determined (FIG. 11).

[6] = test system: HEK293 cells stably expressing tau-RD (P301L/V337M)-YFP; type: cell-based, human; conditions: 36 h
Method: TauP301L was diluted to a final concentration of 10 μM in an aggregation buffer containing 100 mM sodium acetate, 10 μM heparin, 2 mM DTT, pH 7.4. The protein was incubated in a microcentrifuge tube for 4 days at 37° C. with a shaking speed of 100 rpm. Control vials included those wherein (1) buffer was added in place of tauP301L, and (2) buffer was added in place of heparin.
as §1
TauP301L fibrils were prepared as described above (see section on fibril formation) and sonicated for 3 minutes prior to use in this assay. In a reaction volume of 40 μL, 8 μL of fibrils was diluted with 31 μL of low-serum Opti-MEM® (Gibco) media and then mixed with 1 μL of NAPs (DMSO concentration was constant across various concentration of inhibitors). […] IC50 values were calculated by fitting the data set using sigmoidal logistic 4 parameter equation. Error bars represent standard deviation from technical replicates. % Tau infection was calculated using following formula: […]

[7] = Human serum stability assay; type: in vitro ADME; conditions: 25% human serum, 24 h
Method: The stability of NAPs in 25% human serum (Millipore Sigma) was assessed by HPLC. The reaction was started by adding NAPs at a final concentration of 500 μM in pre-warmed serum. The mixture was incubated at 37° C. for 24 h. A 100 μL aliquot of the reaction mixture was taken out at 0 h, 1 h, 4 h, and 24 h and was mixed with an equal volume of 20% TCA and incubated at 4° C. for 15 minutes to precipitate serum proteins. After centrifugation at 12000 rpm for 10 min, the supernatant was collected and mixed with an internal standard (1 mg/mL of Cbz-Tyr-OH dissolved in MeCN) and stored at −20° C. Samples were then analyzed by LC-MS and the percentage of peptide remaining was calculated by integrating peaks.

T1 sequence (P05067 672-713 limits assumed): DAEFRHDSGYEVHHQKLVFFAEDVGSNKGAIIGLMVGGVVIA

Molecule	fibril morphology / inhibition of Tau fibril formation by TEM [1]	effect on end-point ThT fluorescence of tauP301L (inhibition of Tau aggregation) [2]	further results
Ac-Val-Gln-aIle-Val-Tyr-Lys-NH2 (Ac-VQ[aIle′]VYK-NH2; SMILES CC[C@H](C)[C@@H](C(=O)N[C@H](C(=O)N[C@@H](Cc1ccc(O)cc1)C(=O)N[C@@H](CCCCN)C(N)=O)C(C)C)N(N)C(=O)[C@H](CCC(N)=O)NC(=O)[C@@H](NC(C)=O)C(C)C) [Compound 6]	short, immature rod-like fibrils	significantly reduce	–
Ac-Val-Gln-aIle-Ile-Asn-Lys-NH2 (Ac-VQ[aIle′]INK-NH2; SMILES CC[C@H](C)[C@H](NC(=O)[C@H]([C@@H](C)CC)N(N)C(=O)[C@H](CCC(N)=O)NC(=O)[C@@H](NC(C)=O)C(C)C)C(=O)N[C@@H](CC(N)=O)C(=O)N[C@@H](CCCCN)C(N)=O) [Compound 2]	short, immature rod-like fibrils	significantly reduce	–
Ac-Val-Gln-Ile-Val-Tyr-aLys-NH2 (Ac-VQIVY[N(NH2)Lys]-NH2; SMILES CC[C@H](C)[C@H](NC(=O)[C@H](CCC(N)=O)NC(=O)[C@@H](NC(C)=O)C(C)C)C(=O)N[C@H](C(=O)N[C@@H](Cc1ccc(O)cc1)C(=O)N(N)[C@@H](CCCCN)C(N)=O)C(C)C) [Compound 9]	did not inhibit Tau fibril formation	–	–
CC[C@H](C)[C@@H](C(=O)N[C@H](C(=O)N(N)[C@@H](Cc1ccc(O)cc1)C(=O)N[C@@H](CCCCN)C(N)=O)C(C)C)N(N)C(=O)[C@H](CCC(N)=O)NC(=O)[C@@H](NC(C)=O)C(C)C [Compound 12, Ac-Val-Gln-aIle-Val-aTyr-Lys-NH2] (Ac-VQ[X1]V[X2]K-NH2)	non-fibrillary amorphous aggregates; also recorded: non-fibrillary, amorphous aggregates	significantly reduce	cytotoxic effect, MTT assay [3]: no appreciable toxicity; also recorded: non-cytotoxic; also recorded: non-toxic to neuronal cells; seeding capacity of monomeric tauP301L pre-treated with inhibitor ([4]; 0.009 μM inhibitor): less pronounced; seeding capacity of monomeric tauP301L pre-treated with inhibitor ([4]; 1.9 μM inhibitor): significantly reduced seeding capacity; effect on lag-time of Aβ42 aggregation ([5]; any of the concentrations tested): no effect on lag-time; inhibitory effect on Aβ42 aggregation ([5]; compound up to 4-fold molar excess (160 μM), ThT): no inhibitory effect; IC50 [6]: ~5 µM; stability in human serum [7]: remarkably stable; also recorded: serum stable
Ac-aVal-Gln-Ile-Val-Tyr-Lys-NH2 (Ac-[aVal]QIVYK-NH2; SMILES CC[C@H](C)[C@H](NC(=O)[C@H](CCC(N)=O)NC(=O)[C@H](C(C)C)N(N)C(C)=O)C(=O)N[C@H](C(=O)N[C@@H](Cc1ccc(O)cc1)C(=O)N[C@@H](CCCCN)C(N)=O)C(C)C) [Compound 5]	short, immature rod-like fibrils	significantly reduce	–
CC[C@H](C)[C@H](NC(=O)[C@H](CCC(N)=O)NC(=O)[C@@H](NC(C)=O)C(C)C)C(=O)N(N)[C@H](C(=O)N[C@@H](Cc1ccc(O)cc1)C(=O)N(N)[C@@H](CCCCN)C(N)=O)C(C)C [Compound 13, Ac-Val-Gln-Ile-aVal-Tyr-aLys-NH2] (Ac-VQI[X3]Y-{N(NH2)LysNH2})	–	–	cytotoxic effect, MTT assay [3]: no appreciable toxicity; also recorded: non-cytotoxic; IC50 [6]: ~5 µM; stability in human serum [7]: remarkably stable
Ac-aVal-Gln-aIle-Val-aTyr-Lys-NH2 [Compound 14]	did not inhibit Tau fibril formation	–	–
Ac-aVal-Gln-aIle-Ile-Asn-Lys-NH2 (Ac-[aVal]Q[aIle′]INK-NH2; SMILES CC[C@H](C)[C@H](NC(=O)[C@H]([C@@H](C)CC)N(N)C(=O)[C@H](CCC(N)=O)NC(=O)[C@H](C(C)C)N(N)C(C)=O)C(=O)N[C@@H](CC(N)=O)C(=O)N[C@@H](CCCCN)C(N)=O) [Compound 4]	non-fibrillary amorphous aggregates; also recorded: non-fibrillary, amorphous aggregates	significantly reduce	seeding capacity of monomeric tauP301L pre-treated with inhibitor ([4]; 0.009 μM inhibitor): far weaker anti-seeding activity; seeding capacity of monomeric tauP301L pre-treated with inhibitor ([4]; 1.9 μM inhibitor): far weaker anti-seeding activity
Ac-aVal-Gln-aIle-Val-Tyr-Lys-NH2 (Ac-[aVal]Q[aIle′]VYK-NH2; SMILES CC[C@H](C)[C@@H](C(=O)N[C@H](C(=O)N[C@@H](Cc1ccc(O)cc1)C(=O)N[C@@H](CCCCN)C(N)=O)C(C)C)N(N)C(=O)[C@H](CCC(N)=O)NC(=O)[C@H](C(C)C)N(N)C(C)=O) [Compound 10]	did not inhibit Tau fibril formation	–	–
